Results published in the NIST ThermoML archive (doi:10.1016/j.jct.2010.06.008).

Assay: xn = mol fraction of the nth substance listed
Settings: 101 kPa, Liquid; for speed of sound: Sing-around technique in a fixed-path interferometer; for mass density: Vibrating tube method

CCC(C)Cl (stereo not drawn) [2-chlorobutane] + CCCCCC
Settings | mass density, 283.15 K [kg/m3] | mass density, 298.15 K [kg/m3] | mass density, 313.15 K [kg/m3] | speed of sound, 283.15 K [m/s] | speed of sound, 298.15 K [m/s] | speed of sound, 313.15 K [m/s]
x2 = 0 | 884.34 | 867.474 | 850.266 | 1127.7 | 1066.2 | 1005.3
x2 = 0.0509 | 870.642 | 853.976 | 836.967 | 1126.4 | 1064.5 | 1003.3
x2 = 0.1002 | 857.772 | 841.229 | 824.438 | 1125.2 | 1063.1 | 1001.6
x2 = 0.1802 | 837.449 | 821.198 | 804.693 | 1124 | 1061.4 | 999.26
x2 = 0.3029 | 807.817 | 791.981 | 775.929 | 1123.1 | 1059.7 | 996.75
x2 = 0.4045 | 784.524 | 769.021 | 753.339 | 1123.4 | 1059.3 | 995.71
x2 = 0.4991 | 763.875 | 748.682 | 733.339 | 1124.5 | 1059.8 | 995.56
x2 = 0.5974 | 743.353 | 728.495 | 713.496 | 1126.5 | 1061.1 | 996.3
x2 = 0.6992 | 723.059 | 708.519 | 693.898 | 1129.5 | 1063.4 | 998
x2 = 0.7996 | 704.031 | 689.807 | 675.523 | 1133.3 | 1066.8 | 1000.8
x2 = 0.8981 | 686.218 | 672.305 | 658.349 | 1138.3 | 1071.1 | 1004.5
x2 = 0.9477 | 677.555 | 663.793 | 650.005 | 1141.4 | 1073.7 | 1006.9

CC(C)(C)Cl [2-chloro-2-methylpropane] + CCCCCC
Settings | mass density, 283.15 K [kg/m3] | mass density, 298.15 K [kg/m3] | mass density, 313.15 K [kg/m3] | speed of sound, 283.15 K [m/s] | speed of sound, 298.15 K [m/s] | speed of sound, 313.15 K [m/s]
x2 = 0 | 855.249 | 837.096 | 818.536 | 1046.9 | 983.25 | 919.41
x2 = 0.0495 | 843.636 | 825.763 | 807.514 | 1049.8 | 985.59 | 922.06
x2 = 0.0989 | 832.389 | 814.802 | 796.851 | 1052.2 | 987.79 | 924.46
x2 = 0.2019 | 809.862 | 792.826 | 775.465 | 1058.6 | 993.98 | 930.06
x2 = 0.2987 | 789.789 | 773.235 | 756.4 | 1065.7 | 1000.7 | 936.45
x2 = 0.4043 | 768.847 | 752.8 | 736.513 | 1074.5 | 1009.1 | 944.41
x2 = 0.4985 | 751.114 | 735.482 | 719.653 | 1083.1 | 1017.5 | 952.34
x2 = 0.6024 | 732.382 | 717.205 | 701.869 | 1093.7 | 1027.6 | 962.01
x2 = 0.7017 | 715.376 | 700.606 | 685.731 | 1104.7 | 1038.2 | 972.24
x2 = 0.7996 | 699.305 | 684.94 | 670.488 | 1116.6 | 1049.7 | 983.31
x2 = 0.9025 | 683.186 | 669.222 | 655.21 | 1130.4 | 1063 | 996.24
x2 = 0.9498 | 676.073 | 662.283 | 648.468 | 1137.2 | 1069.5 | 1002.6

CCCCCl [1-chlorobutane] + CCCCCCC
mass density [kg/m3]
Settings | 283.15 K | 298.15 K | 313.15 K
x2 = 0 | 897.339 | 880.785 | 863.882
x2 = 0.0508 | 882.735 | 866.442 | 849.802
x2 = 0.1017 | 868.636 | 852.592 | 836.205
x2 = 0.1981 | 843.549 | 827.947 | 812.014
x2 = 0.2989 | 819.278 | 804.127 | 788.662
x2 = 0.4022 | 796.314 | 781.594 | 766.57
x2 = 0.4998 | 776.207 | 761.86 | 747.232
x2 = 0.6008 | 756.852 | 742.869 | 728.632
x2 = 0.6989 | 739.334 | 725.722 | 711.853
x2 = 0.7985 | 722.761 | 709.483 | 695.957
x2 = 0.898 | 707.234 | 694.282 | 681.084
x2 = 0.9498 | 699.591 | 686.802 | 673.764

CCCCCCC [heptane] + CCC(C)Cl
Settings | mass density, 283.15 K [kg/m3] | mass density, 298.15 K [kg/m3] | mass density, 313.15 K [kg/m3] | speed of sound, 313.15 K [m/s]
x1 = 1 | 692.422 | 679.783 | 666.908 | –
x2 = 0 | – | – | – | 1005.3

CC(C)CCl [1-chloro-2-methylpropane] + CCCCCC
Settings | mass density, 283.15 K [kg/m3] | mass density, 298.15 K [kg/m3] | mass density, 313.15 K [kg/m3] | speed of sound, 283.15 K [m/s] | speed of sound, 298.15 K [m/s] | speed of sound, 313.15 K [m/s]
x2 = 0 | 888.845 | 871.533 | 853.902 | 1141.7 | 1078.6 | 1016.3
x2 = 0.0512 | 874.715 | 857.627 | 840.236 | 1139.3 | 1075.9 | 1013.4
x2 = 0.0999 | 861.62 | 844.732 | 827.564 | 1137.3 | 1073.7 | 1011
x2 = 0.2003 | 835.641 | 819.166 | 802.454 | 1134 | 1070 | 1006.9
x2 = 0.2993 | 811.259 | 795.172 | 778.889 | 1131.9 | 1067.5 | 1003.9
x2 = 0.4005 | 787.516 | 771.817 | 755.943 | 1130.6 | 1065.8 | 1001.8
x2 = 0.4977 | 765.822 | 750.487 | 735.001 | 1130.5 | 1065.2 | 1000.6
x2 = 0.598 | 744.502 | 729.51 | 714.446 | 1131.3 | 1065.5 | 1000.4
x2 = 0.6993 | 723.963 | 709.35 | 694.648 | 1133 | 1066.7 | 1001.1
x2 = 0.799 | 704.731 | 690.452 | 676.142 | 1135.8 | 1069 | 1002.8
x2 = 0.8967 | 686.793 | 672.832 | 658.858 | 1139.6 | 1072.2 | 1005.6
x2 = 0.9472 | 677.811 | 664.036 | 650.244 | 1142 | 1074.3 | 1007.5

CCCCCC [hexane] + CCC(C)Cl
x1 = 1
Settings | mass density [kg/m3] | speed of sound [m/s]
283.15 K | 668.609 | 1145.1
298.15 K | 654.96 | 1077
313.15 K | 641.39 | 1009.9

CCC(C)Cl (stereo not drawn) [2-chlorobutane] + CCCCCCC
mass density [kg/m3]
Settings | 283.15 K | 298.15 K | 313.15 K
x2 = 0 | 884.34 | 867.474 | 850.266
x2 = 0.0506 | 870.755 | 854.132 | 837.236
x2 = 0.0989 | 858.319 | 841.994 | 825.335
x2 = 0.2012 | 833.412 | 817.61 | 801.474
x2 = 0.3016 | 810.786 | 795.463 | 779.843
x2 = 0.3997 | 790.254 | 775.401 | 760.214
x2 = 0.4984 | 771.15 | 756.698 | 741.962
x2 = 0.5994 | 752.976 | 738.95 | 724.63
x2 = 0.6994 | 736.272 | 722.581 | 708.679
x2 = 0.7996 | 720.631 | 707.328 | 693.773
x2 = 0.9006 | 705.927 | 692.97 | 679.768
x2 = 0.9503 | 699.08 | 686.282 | 673.245
